The numbers were not newly measured in US20050009922A1, “Stable aqueous antimicrobial suspension” (priority 2001, published 2005), which cites them from elsewhere.

The conditions of this data set: in water, 25° C., FIG. 1.

In the case of `N#CC(Br)(Br)C(N)=O` [DBNPA, 2,2 dibromo 3-nitrilopropionamide], the “pH of lowest rate of hydrolysis” value is below 4 pH.
